Measured values published in patent US4278658A, “Deodorant composition” (priority 1978, dated 1981).

Legend:
lipoxidase (ECl.12.1.13) = target: T1, lipoxidase (ECl.12.1.13) (Glycine max, UniProt P08170); assay: Lipoxidase test: inhibition of oxidation of linoleic acid by lipoxidase; format: biochemical; parameters: inhibition: concentration or dose not given beside the values; conditions: for inhibition at 0.5 % strength / inhibition: read-out: LIC (lipoxidase inhibiting capacity)
T1 sequence (P08170 1-839): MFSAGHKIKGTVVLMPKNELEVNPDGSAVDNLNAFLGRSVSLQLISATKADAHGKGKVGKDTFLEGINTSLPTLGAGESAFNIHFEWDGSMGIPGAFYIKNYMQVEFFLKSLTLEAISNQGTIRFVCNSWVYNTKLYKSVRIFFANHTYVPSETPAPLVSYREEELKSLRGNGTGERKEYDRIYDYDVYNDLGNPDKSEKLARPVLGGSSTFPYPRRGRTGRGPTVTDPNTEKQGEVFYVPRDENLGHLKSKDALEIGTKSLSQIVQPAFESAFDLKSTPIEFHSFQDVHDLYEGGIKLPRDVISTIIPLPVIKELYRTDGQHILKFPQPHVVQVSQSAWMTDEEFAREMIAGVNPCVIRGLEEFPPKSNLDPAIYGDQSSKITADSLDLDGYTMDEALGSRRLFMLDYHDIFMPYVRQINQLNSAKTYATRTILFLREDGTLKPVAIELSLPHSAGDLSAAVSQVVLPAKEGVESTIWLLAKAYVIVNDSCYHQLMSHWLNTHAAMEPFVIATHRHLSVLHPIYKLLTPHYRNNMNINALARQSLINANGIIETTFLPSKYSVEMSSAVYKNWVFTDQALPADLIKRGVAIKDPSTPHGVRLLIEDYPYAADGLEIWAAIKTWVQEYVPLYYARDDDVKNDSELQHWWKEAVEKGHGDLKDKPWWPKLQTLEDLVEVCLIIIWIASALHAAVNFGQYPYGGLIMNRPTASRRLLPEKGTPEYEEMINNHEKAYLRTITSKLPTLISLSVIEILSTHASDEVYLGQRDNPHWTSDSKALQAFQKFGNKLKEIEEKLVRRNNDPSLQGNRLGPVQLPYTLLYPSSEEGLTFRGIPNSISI

[1] = Morpholine test: depression of the partial vapour pressure of morpholine beyond Raoult's Law; conditions: morpholine 0.25 g + material 1 g, 37° C., 30 minutes, headspace GC
[2] = % inhibition = 100 (S1-S2)/S1, 0.5% by weight solution of material in ethanol in test substrate, borate buffer pH 9.0, 234 nm

| Molecule | inhibition at 0.5 % strength (lipoxidase (ECl.12.1.13); pH 9) [%] | RVR (Raoult variance ratio) [1] | inhibition (lipoxidase (ECl.12.1.13); pH 9) [%] | LIC (lipoxidase inhibiting capacity) (lipoxidase (ECl.12.1.13); [2]) [%] | LIC (lipoxidase inhibiting capacity) (lipoxidase (ECl.12.1.13); pH 9) [%] |
| --- | --- | --- | --- | --- | --- |
| Cc1ccc(C(C)C)cc1O [Carvacrol] | 32 | 1.43 | – | – | – |
| CC(C=O)Cc1ccc(C(C)(C)C)cc1 (stereo not drawn) [p-t-Butyl-α-methyl hydrocinnamic aldehyde] | – | – | 74 | – | – |
| Dimyrcetol | – | 1.22 | – | 16 | – |
| CC(=O)OC1CCCCC1C(C)(C)C (stereo not drawn) [o-t-Butylcyclohexyl acetate] | – | 1.08 | 52 | – | – |
| i-Nonyl acetate | – | 0.83 | – | 50 | – |
| CCC(C)(C)C1CCC(=O)CC1 [p-t-Amyl cyclohexanone] | – | 1.10 | 50 | – | – |
| C/C=C\c1ccc(O)c(OC)c1 [iso-Eugenol] | 100 | 1.48 | – | – | – |
| CC1(C)CCCC2(C)C1CCC1(C)OCCC12 (stereo not drawn) [3a-Methyl-dodecahydro-6,6,9a-trimethylnaphtho(2,1-b)furan] | – | 1.30 | 58 | – | – |
| CCOC(=O)c1ccccc1C(=O)OCC [Diethyl phthalate] | 79 | 1.20 | – | – | – |
| CC(C)CCOC(=O)c1ccccc1O [iso-Amyl salicylate] | – | 1.24 | 95 | – | – |
| CCCCCCC(CCOC(C)=O)OC(C)=O (stereo not drawn) [Nonanediol-1,3-diacetate] | – | 1.17 | 33 | – | – |
| CCCCCC1CCC(=O)O1 (stereo not drawn) [Nonanolide-1:4] | – | 0.87 | 92 | – | – |
| O=c1ccc2ccccc2o1 [Coumarin] | – | 1.22 | 58 | – | – |
| i-Nonyl formate | – | 1.49 | – | – | 19 |
| CCCCCCCC1CCCC1=O (stereo not drawn) [2-n-Heptylcyclopentanone] | – | 1.05 | 56 | – | – |
| CCOc1cc(C=O)ccc1O [Ethyl vanillin] | 100 | 1.43 | – | – | – |
| CC(=O)c1ccc2ccccc2c1 [β-Methyl naphthyl ketone] | 100 | 0.96 | – | – | – |
| Tetrahydromuguol | – | 1.23 | – | – | 24 |
| CC(=O)OC1CCC(C(C)(C)C)CC1 (stereo not drawn) [p-t-Butylcyclohexyl acetate] | – | 0.98 | 54 | – | – |
| CC1COCc2cc3c(cc21)C(C)(C)C(C)C3(C)C (stereo not drawn) [1,3,4,6,7,8-Hexahydro-4,6,6,7,8,8-hexamethyl cyclopenta-α-2-benzopyran] | – | – | 100 | – | – |
| OCCc1ccccc1 [Phenylethyl alcohol] | – | 1.24 | 22 | – | – |
| O=C(OCc1ccccc1)c1ccccc1O [Benzyl salicylate] | 0 | 1.58 | – | – | – |
